Reference: PMC5687273 (Cell reports, 2017)

Biological target: Cdk7^as (Homo sapiens, UniProt P50613, D92E/F91G)
Assay: in vitro kinase assay on GST-CTD, autoradiography
Format: biochemical

Sequence of Cdk7^as (P50613 2-346 F91G/D92E): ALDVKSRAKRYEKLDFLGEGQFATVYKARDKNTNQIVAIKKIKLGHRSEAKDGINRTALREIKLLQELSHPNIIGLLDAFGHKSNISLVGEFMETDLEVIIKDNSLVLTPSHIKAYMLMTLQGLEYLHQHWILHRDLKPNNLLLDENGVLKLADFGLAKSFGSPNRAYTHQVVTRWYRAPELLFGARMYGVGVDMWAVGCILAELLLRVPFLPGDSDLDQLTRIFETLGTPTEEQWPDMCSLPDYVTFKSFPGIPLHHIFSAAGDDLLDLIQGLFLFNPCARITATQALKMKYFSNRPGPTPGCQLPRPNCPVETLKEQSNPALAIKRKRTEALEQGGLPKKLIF
Sequence of Cdk7^as (P51946 whole entry partner): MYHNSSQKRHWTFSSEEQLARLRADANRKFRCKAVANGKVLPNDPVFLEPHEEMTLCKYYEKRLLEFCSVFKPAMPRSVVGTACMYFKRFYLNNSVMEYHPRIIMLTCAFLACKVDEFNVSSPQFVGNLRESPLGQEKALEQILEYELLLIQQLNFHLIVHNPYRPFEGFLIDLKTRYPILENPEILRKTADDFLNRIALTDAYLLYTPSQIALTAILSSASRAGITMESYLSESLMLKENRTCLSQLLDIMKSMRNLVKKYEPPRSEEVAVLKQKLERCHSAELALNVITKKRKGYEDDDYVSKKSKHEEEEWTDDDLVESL
Sequence of Cdk7^as (P51948 whole entry partner): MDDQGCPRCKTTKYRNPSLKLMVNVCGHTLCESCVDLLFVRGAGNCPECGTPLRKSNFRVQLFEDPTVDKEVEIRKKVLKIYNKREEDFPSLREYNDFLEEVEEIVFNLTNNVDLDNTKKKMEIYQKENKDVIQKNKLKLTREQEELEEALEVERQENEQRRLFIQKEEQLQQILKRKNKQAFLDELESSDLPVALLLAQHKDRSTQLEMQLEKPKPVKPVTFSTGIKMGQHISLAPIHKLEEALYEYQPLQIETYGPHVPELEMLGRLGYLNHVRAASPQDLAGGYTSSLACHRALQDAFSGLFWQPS

IC50: ~10 nM
SMILES: Cc1cccc(Cc2nn(C(C)(C)C)c3ncnc(N)c23)c1 [3-MB-PP1]
